Data published in ChEMBL document CHEMBL1156094, “Imidazopyridine-5,6,7,8-tetrahydro-8-quinolinamine derivatives with potent activity against HIV-1” (Bioorg Med Chem Lett, 2009).
Calls of active or inactive are those of the source. The calls are words filed in the database; no cut-off is given here.

What was measured:
[1] = Cytotoxicity against human HOS cells; type: cell-based
[2] = target: C-X-C chemokine receptor type 4 (Homo sapiens) (UniProt P61073); assay: Antagonist activity at CXCR4; type: functional
[3] = system: Human immunodeficiency virus 1; assay: Antiviral activity against HIV1 3B infected human HOS cells expressing human CXCR4 and CD4 assessed as inhibition of viral infection by luciferase reporter gene assay; type: functional, organism-based; settings: Human immunodeficiency virus 1, 3B
[4] = Oral bioavailability in rat at 3 mg/kg; type: ADME, organism-based; settings: in vivo
[5] = system: Human immunodeficiency virus 1; assay: Antiviral activity against HIV1 3B infected human HOS cells expressing human CXCR4 and CD4 assessed as inhibition of viral infection in presence of human serum albumin and alpha-acid glycoprotein by luciferase reporter gene assay; type: functional; design: unit not given here
[6] = Clearance in rat at 1 mg/kg, iv; type: ADME, organism-based; design: dose 1 mg/kg, route intravenous; settings: in vivo
[7] = Half life in rat at 1 mg/kg, iv; type: ADME, organism-based; design: dose 1 mg/kg, route intravenous; settings: in vivo
[8] = Volume of distribution at steady state in rat at 1 mg/kg, iv; type: ADME, organism-based; design: dose 1 mg/kg, route intravenous; settings: in vivo, read-out: Vdss
[9] = Clearance in Beagle dog at 1 mg/kg, iv; type: ADME, organism-based, Canis lupus familiaris; design: dose 1 mg/kg, route intravenous; settings: in vivo
[10] = Half life in Beagle dog at 1 mg/kg, iv; type: ADME, organism-based, Canis lupus familiaris; design: dose 1 mg/kg, route intravenous; settings: in vivo
[11] = Half life in cynomolgus monkey at 1 mg/kg, iv; type: ADME, organism-based, Macaca fascicularis; design: dose 1 mg/kg, route intravenous; settings: in vivo
[12] = Oral bioavailability in Beagle dog at 3 mg/kg; type: ADME, organism-based, Canis lupus familiaris; settings: in vivo
[13] = Volume of distribution at steady state in Beagle dog at 1 mg/kg, iv; type: ADME, organism-based, Canis lupus familiaris; design: dose 1 mg/kg, route intravenous; settings: in vivo, read-out: Vdss
[14] = Oral bioavailability in cynomolgus monkey at 3 mg/kg; type: ADME, organism-based, Macaca fascicularis; settings: in vivo
[15] = Clearance in cynomolgus monkey at 1 mg/kg, iv; type: ADME, organism-based, Macaca fascicularis; design: dose 1 mg/kg, route intravenous; settings: in vivo
[16] = Volume of distribution at steady state in cynomolgus monkey at 1 mg/kg, iv; type: ADME, organism-based, Macaca fascicularis; design: dose 1 mg/kg, route intravenous; settings: in vivo, read-out: Vdss

C-X-C chemokine receptor type 4 (Homo sapiens), sequence (P61073 whole entry): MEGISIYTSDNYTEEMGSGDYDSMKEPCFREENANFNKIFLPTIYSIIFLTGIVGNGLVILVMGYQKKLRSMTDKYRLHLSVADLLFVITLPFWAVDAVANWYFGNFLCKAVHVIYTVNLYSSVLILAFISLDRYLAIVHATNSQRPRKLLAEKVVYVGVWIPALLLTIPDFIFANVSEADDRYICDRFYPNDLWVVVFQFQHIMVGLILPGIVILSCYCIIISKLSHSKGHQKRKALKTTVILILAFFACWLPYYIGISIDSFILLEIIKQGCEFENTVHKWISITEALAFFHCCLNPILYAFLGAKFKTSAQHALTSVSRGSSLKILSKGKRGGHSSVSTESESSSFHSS

Structure (SMILES)	CC50 [1]	Activity [2]	IC50 [3]	Activity [5]	further results
CCCCN(Cc1cn2c(N3CCN(C)CC3)cccc2n1)[C@H]1CCCc2cccnc21	5300 nM	Active	3 nM		
CN1CCN(c2cccn3cc(CN(C)[C@H]4CCCc5cccnc54)nc23)CC1	> 5000 nM	Active	640 nM		
CN(C)[C@H]1CCN(c2cccc3nc(CN(C)[C@H]4CCCc5cccnc54)cn23)C1	2100 nM	Active	8 nM	3	bioavailability [4]: 2%; clearance [6]: 9.5 mL/min/kg; half-life [7]: 7.9 h; Vd [8]: 4.5 L/kg
CN(Cc1cn2c(N3CCN4CCCC4C3)cccc2n1)[C@H]1CCCc2cccnc21 (some centres undefined)	3900 nM	Active	4 nM		
CN(Cc1cn2c(N3CCOCC3)cccc2n1)C1CCCc2cccnc21 (racemic)	> 10000 nM	Active	690 nM		
CN(Cc1cn2c(N3CCC(N)CC3)cccc2n1)[C@H]1CCCc2cccnc21	6300 nM	Active	4 nM		
CCCN(Cc1cn2c(N3CCN(C)CC3)cccc2n1)[C@H]1CCCc2cccnc21	6700 nM	Active	3 nM	5	bioavailability [4]: 41%; clearance [6]: 8.9 mL/min/kg; half-life [7]: 10.7 h; Vd [8]: 6.2 L/kg
CN(C)[C@@H]1CCN(c2cccc3nc(CN(C)[C@H]4CCCc5cccnc54)cn23)C1	4900 nM	Active	43 nM	5	
CCN1CCN(c2cccc3nc(CN(C)[C@H]4CCCc5cccnc54)cn23)CC1	3900 nM	Active	4 nM	10	
CN1CCN(c2cccc3nc(CN(CC4CC4)[C@H]4CCCc5cccnc54)cn23)CC1	8000 nM	Active	4 nM	6	bioavailability [4]: 31%; clearance [6]: 9.9 mL/min/kg; half-life [7]: 8.8 h; Vd [8]: 6 L/kg
CC(C)N(Cc1cn2c(N3CCN(C)CC3)cccc2n1)[C@H]1CCCc2cccnc21	8900 nM	Active	5 nM	5	
CN1CCN(c2cccc3nc(CN(C)[C@H]4CCCc5cccnc54)[nH]c23)CC1	> 5000 nM	Active		80	
CN1CCC(N(C)c2cccc3nc(CN(C)[C@H]4CCCc5cccnc54)cn23)C1 (some centres undefined)	10800 nM	Active	30 nM	1.3	
CCN(Cc1cn2c(N3CCN(C)CC3)cccc2n1)[C@H]1CCCc2cccnc21	8100 nM	Active	2 nM	1.5	
CN1CCC(N(C)c2cccc3nc(CN(C)[C@H]4CCCc5cccnc54)cn23)CC1	12500 nM	Active	49 nM		
CN1CCN(c2cccc3nc(CN(C)[C@@H]4CCCc5cccnc54)cn23)CC1	12600 nM	Active	84 nM		
CC(C)N1CCN(c2cccc3nc(CN(C)[C@H]4CCCc5cccnc54)cn23)CC1	7100 nM	Active	3 nM	3.3	bioavailability [4]: 29%; clearance [6]: 31 mL/min/kg; half-life [7]: 3.9 h; Vd [8]: 10.6 L/kg
CN1CCN(c2cccc3nc(CN(CC(F)(F)F)C4CCCc5cccnc54)cn23)CC1 (racemic)	> 5000 nM	Active	127 nM		
CN(C)C1CCN(c2cccc3nc(CN(C)[C@H]4CCCc5cccnc54)cn23)CC1	3400 nM	Active	4 nM	8	bioavailability [4]: 7%; clearance [6]: 5.7 mL/min/kg; half-life [7]: 10 h; Vd [8]: 5.1 L/kg
CN1CCN(c2cccc3nc(CN(C)[C@H]4CCCc5cccnc54)cn23)CC1	4500 nM	Active	2 nM	1.5	clearance [9]: 18 mL/min/kg; half-life [10]: 7.6 h; half-life [11]: 10 h; bioavailability [12]: 13%; bioavailability [4]: 11%; Vd [13]: 8.5 L/kg; bioavailability [14]: 10%; clearance [15]: 6 mL/min/kg; clearance [6]: 14 mL/min/kg; Vd [16]: 3.7 L/kg; half-life [7]: 5.5 h; Vd [8]: 4.9 L/kg
CN1CCN(c2cccc3nc(CN(Cc4ccccc4)[C@H]4CCCc5cccnc54)cn23)CC1	9300 nM	Active	28 nM		
CC(C)CN(Cc1cn2c(N3CCN(C)CC3)cccc2n1)[C@H]1CCCc2cccnc21	20000 nM	Active	23 nM		
